# According to ChEMBL document CHEMBL3885861, “Open TG-GATES”:
# Species: Rattus norvegicus
# Assay: Open TG-GATES - Regimen: Single
# Assay type: toxicity, organism-based, Sprague-Dawley
# Set-up: regimen Single, gender Male, age 6 weeks
# Conditions: in vivo, po, 100 mg/kg, route gavage, dose level Low; for APTT / Bas / Eos / Fbg / Hb / Ht / Lym / MCH / MCHC / MCV / Mono / Neu / PT / Plat / RBC / Ret / WBC: tissue Blood; for KIDNEY_L / KIDNEY_R / KIDNEY_TOTAL: tissue Kidney; for LIVER: tissue Liver; for A/G / ALP / ALT / AST / BUN / CRE / Ca / Cl / DBIL / GLC / IP / K / LDH / Na / PL / RALB / TBIL / TC / TG / TP / gamma-GTP: tissue Plasma
smiles,measurement,setting,value
CC(S)C(=O)NCC(=O)O (configuration not stated) [TIOPRONIN],TERMINAL_BW,3 h,208 g
same,APTT,3 h,22.4 s
same,Bas,3 h,0%
same,Eos,3 h,0.6%
same,Fbg,3 h,295.6 mg/dL
same,Hb,3 h,13 g/dL
same,Ht,3 h,39.9%
same,Lym,3 h,79.2%
same,MCH,3 h,20 pg
same,MCHC,3 h,32.6%
same,MCV,3 h,61.6 fL
same,Mono,3 h,2.4%
same,Neu,3 h,16.8%
same,PT,3 h,16.5 s
same,Plat,3 h,113.3 x10_4/uL
same,RBC,3 h,649.2 x10_4/ul
same,Ret,3 h,7.6%
same,WBC,3 h,73.6 x10_2/uL
same,KIDNEY_L,3 h,0.9 g
same,KIDNEY_R,3 h,0.9 g
same,KIDNEY_TOTAL,3 h,1.8 g
same,LIVER,3 h,9 g
same,A/G,3 h,1.2
same,ALP,3 h,1568.4 IU/L
same,ALT,3 h,48.2 IU/L
same,AST,3 h,75.8 IU/L
same,BUN,3 h,10.2 mg/dL
same,CRE,3 h,0.1 mg/dL
same,Ca,3 h,10.7 mg/dL
same,Cl,3 h,106.8 meq/L
same,DBIL,3 h,0 mg/dL
same,GLC,3 h,185.6 mg/dL
same,IP,3 h,8.6 mg/dL
same,K,3 h,4.1 meq/L
same,LDH,3 h,172.8 IU/L
same,Na,3 h,142.8 meq/L
same,PL,3 h,117.6 mg/dL
same,RALB,3 h,2.9 g/dL
same,TBIL,3 h,0.02 mg/dL
same,TC,3 h,68.6 mg/dL
same,TG,3 h,49.6 mg/dL
same,TP,3 h,5.4 g/dL
same,gamma-GTP,3 h,1.8 IU/L
same,TERMINAL_BW,6 h,205.7 g
same,APTT,6 h,22.4 s
same,Bas,6 h,0%
same,Eos,6 h,1%
same,Fbg,6 h,301.8 mg/dL
same,Hb,6 h,12.9 g/dL
same,Ht,6 h,39.5%
same,Lym,6 h,75.8%
same,MCH,6 h,20.1 pg
same,MCHC,6 h,32.6%
same,MCV,6 h,61.6 fL
same,Mono,6 h,2.6%
same,Neu,6 h,20.2%
same,PT,6 h,16 s
same,Plat,6 h,118.6 x10_4/uL
same,RBC,6 h,641.6 x10_4/ul
same,Ret,6 h,7.7%
same,WBC,6 h,93.1 x10_2/uL
same,KIDNEY_L,6 h,0.9 g
same,KIDNEY_R,6 h,0.9 g
same,KIDNEY_TOTAL,6 h,1.9 g
same,LIVER,6 h,8.8 g
same,A/G,6 h,1.2
same,ALP,6 h,1456.8 IU/L
same,ALT,6 h,39.6 IU/L
same,AST,6 h,70.8 IU/L
same,BUN,6 h,8.4 mg/dL
same,CRE,6 h,0.1 mg/dL
same,Ca,6 h,10.6 mg/dL
same,Cl,6 h,105.8 meq/L
same,DBIL,6 h,0 mg/dL
same,GLC,6 h,185.2 mg/dL
same,IP,6 h,9.8 mg/dL
same,K,6 h,4.3 meq/L
same,LDH,6 h,154.6 IU/L
same,Na,6 h,144 meq/L
same,PL,6 h,125.6 mg/dL
same,RALB,6 h,2.9 g/dL
same,TBIL,6 h,0.018 mg/dL
same,TC,6 h,76.4 mg/dL
same,TG,6 h,50.8 mg/dL
same,TP,6 h,5.4 g/dL
same,gamma-GTP,6 h,2 IU/L
same,TERMINAL_BW,9 h,205.8 g
same,APTT,9 h,22.6 s
same,Bas,9 h,0%
same,Eos,9 h,0.2%
same,Fbg,9 h,291.8 mg/dL
same,Hb,9 h,12.5 g/dL
same,Ht,9 h,39.1%
same,Lym,9 h,80.6%
same,MCH,9 h,20.4 pg
same,MCHC,9 h,32%
same,MCV,9 h,63.7 fL
same,Mono,9 h,1.8%
same,Neu,9 h,16.2%
same,PT,9 h,16.4 s
same,Plat,9 h,114 x10_4/uL
same,RBC,9 h,614.2 x10_4/ul
same,Ret,9 h,8.3%
same,WBC,9 h,72.6 x10_2/uL
same,KIDNEY_L,9 h,0.9 g
same,KIDNEY_R,9 h,0.9 g
same,KIDNEY_TOTAL,9 h,1.8 g
same,LIVER,9 h,8.5 g
same,A/G,9 h,1.1
same,ALP,9 h,1275.6 IU/L
same,ALT,9 h,39.2 IU/L
same,AST,9 h,70.2 IU/L
same,BUN,9 h,12.8 mg/dL
same,CRE,9 h,0.1 mg/dL
same,Ca,9 h,10.6 mg/dL
same,Cl,9 h,106.4 meq/L
same,DBIL,9 h,0.002 mg/dL
same,GLC,9 h,190.2 mg/dL
same,IP,9 h,9.5 mg/dL
same,K,9 h,4.2 meq/L
same,LDH,9 h,142.8 IU/L
same,Na,9 h,143.8 meq/L
same,PL,9 h,119.6 mg/dL
same,RALB,9 h,2.8 g/dL
same,TBIL,9 h,0.01 mg/dL
same,TC,9 h,68.8 mg/dL
same,TG,9 h,48.4 mg/dL
same,TP,9 h,5.4 g/dL
same,gamma-GTP,9 h,1.2 IU/L
same,TERMINAL_BW,24 h,222 g
same,APTT,24 h,20.5 s
same,Bas,24 h,0%
same,Eos,24 h,0.8%
same,Fbg,24 h,302.2 mg/dL
same,Hb,24 h,12.9 g/dL
same,Ht,24 h,38.6%
same,Lym,24 h,81.8%
same,MCH,24 h,20.5 pg
same,MCHC,24 h,33.3%
same,MCV,24 h,61.6 fL
same,Mono,24 h,2.6%
same,Neu,24 h,13.8%
same,PT,24 h,16.3 s
same,Plat,24 h,111.9 x10_4/uL
same,RBC,24 h,627.6 x10_4/ul
same,Ret,24 h,7.4%
same,WBC,24 h,75.5 x10_2/uL
same,KIDNEY_L,24 h,1 g
same,KIDNEY_R,24 h,1 g
same,KIDNEY_TOTAL,24 h,1.9 g
same,LIVER,24 h,9.6 g
same,A/G,24 h,1.2
same,ALP,24 h,1761 IU/L
same,ALT,24 h,45.6 IU/L
same,AST,24 h,76.8 IU/L
same,BUN,24 h,15.2 mg/dL
same,CRE,24 h,0.1 mg/dL
same,Ca,24 h,10.8 mg/dL
same,Cl,24 h,106.2 meq/L
same,DBIL,24 h,0 mg/dL
same,GLC,24 h,184.8 mg/dL
same,IP,24 h,7.4 mg/dL
same,K,24 h,4.4 meq/L
same,LDH,24 h,166 IU/L
same,Na,24 h,144.4 meq/L
same,PL,24 h,144 mg/dL
same,RALB,24 h,3 g/dL
same,TBIL,24 h,0.01 mg/dL
same,TC,24 h,82.4 mg/dL
same,TG,24 h,93 mg/dL
same,TP,24 h,5.6 g/dL
same,gamma-GTP,24 h,1.2 IU/L
